These results are taken from the supplement of paper PMC5908809.

For assay [1], the system named is SNK-6 (IL-2 2.5 ng/mL). Nature of the assay: relative IC50 (inflection point of fitted viability curve, relative to fitted max inhibition); higher = less sensitive. As to conditions: 72 h. As for the experimental part:
(§1)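 Drug sensitivity and resistance testing: 5 concentrations over a 10,000-fold range, 72 h at 37 °C, viability by CellTiter-Glo normalised to DMSO and benzethonium chloride controls. IC50 is the inflection point of a logistic fit (min fixed at 0, max fitted), so it is relative to the fitted maximal inhibition. Kept only where fitted max inhibition is at least 50%.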

Assay [2] deals with KHYG-1 (IL-2 2.5 ng/mL). The assay is described as above. As to conditions: 72 h. As for the experimental part:
as §1

The subject of assay [3] is NKL (IL-2 2.5 ng/mL). Described as above. The note with it: 72 h. The method, then:
as §1

The subject of assay [4] is NK-92 (IL-2 2.5 ng/mL). The assay is described as above. The note with it: 72 h. The method, then: as §1
Assay [5] relates to IMC-1 (IL-2 20 ng/mL). The description is as above. The note with it: 72 h. The method, then: as §1
Assay [6] relates to DERL-7 (IL-2 2.5 ng/mL). The description is as above. As to conditions: 72 h. The method, then:
as §1

In assay [7] the test system is KAI3 (IL-2 2.5 ng/mL). Described as above. The note with it: 72 h. The method, then: as §1
Assay [8] has as its system KHYG-1 (IL-2 2.5 ng/mL). Nature of the assay: percent inhibition of viability; higher = more inhibition. As to conditions: 72 h.
In assay [9] the test system is NK-92 (IL-2 2.5 ng/mL). The description is as above. The note with it: 72 h.
The test system of assay [10] is normal primary NK cells, pool 2 (3 donors) (IL-2 2.5 ng/mL). The assay is described as above. As to conditions: 72 h.
The subject of assay [11] is DERL-7 (IL-2 2.5 ng/mL). The assay is described as above. As to conditions: 72 h.
Assay [12] relates to normal primary NK cells, pool 3 (3 donors) (IL-2 2.5 ng/mL). Described as above. As to conditions: 72 h.
Assay [13] has as its system NK-YS (IL-2 2.5 ng/mL). The description is as above. The note with it: 72 h.
The subject of assay [14] is normal primary NK cells, pool 1 (3 donors) (IL-2 2.5 ng/mL). The description is as above. As to conditions: 72 h.
The test system of assay [15] is YT (IL-2 2.5 ng/mL). Described as above. The note with it: 72 h.
Assay [16] concerns normal primary NK cells, pool 1 (3 donors), resting (IL-2 0 ng/mL). The description is as above. As to conditions: 72 h.
Assay [17] deals with SNK-6 (IL-2 2.5 ng/mL). The description is as above. The note with it: 72 h.
Assay [18] relates to IMC-1 (IL-2 20 ng/mL). The assay is described as above. The note with it: 72 h.
For assay [19], the system named is KAI3 (IL-2 2.5 ng/mL). The assay is described as above. The note with it: 72 h.
The test system of assay [20] is NKL (IL-2 2.5 ng/mL). The assay is described as above. As to conditions: 72 h.
In assay [21] the test system is KHYG-1 (IL-2 2.5 ng/mL). Nature of the assay: drug sensitivity score (DSS) (DSS units); higher = more sensitive; extreme values may be limits of the assay. As to conditions: 72 h.
Assay [22] has as its system NK-92 (IL-2 2.5 ng/mL). The description is as above. As to conditions: 72 h.
For assay [23], the system named is normal primary NK cells, pool 2 (3 donors) (IL-2 2.5 ng/mL). Described as above. The note with it: 72 h.
Assay [24] concerns DERL-7 (IL-2 2.5 ng/mL). Described as above. The note with it: 72 h.
Assay [25] relates to normal primary NK cells, pool 3 (3 donors) (IL-2 2.5 ng/mL). The assay is described as above. As to conditions: 72 h.
In assay [26] the test system is NK-YS (IL-2 2.5 ng/mL). The assay is described as above. As to conditions: 72 h.
In assay [27] the test system is normal primary NK cells, pool 1 (3 donors) (IL-2 2.5 ng/mL). The assay is described as above. As to conditions: 72 h.
In assay [28] the test system is YT (IL-2 2.5 ng/mL). Described as above. The note with it: 72 h.
For assay [29], the system named is normal primary NK cells, pool 1 (3 donors), resting (IL-2 0 ng/mL). Described as above. The note with it: 72 h.
In assay [30] the test system is SNK-6 (IL-2 2.5 ng/mL). The assay is described as above. The note with it: 72 h.
In assay [31] the test system is IMC-1 (IL-2 20 ng/mL). The description is as above. As to conditions: 72 h.
Assay [32] has as its system KAI3 (IL-2 2.5 ng/mL). The description is as above. As to conditions: 72 h.
Assay [33] concerns NKL (IL-2 2.5 ng/mL). Described as above. As to conditions: 72 h.
The subject of assay [34] is normal NK cells expanded with K562-aAPC. Described as above. As to conditions: 72 h; IL-2 2.5 ng/mL. As for the experimental part:
(§2)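 Drug sensitivity and resistance testing on K562-aAPC-expanded normal NK cells: 5 concentrations (10-fold steps over a 10,000-fold range), 72 h at 37 °C, viability by CellTiter-Glo normalised to DMSO and benzethonium chloride controls; DSS from the fitted curve.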

The test system is the same in assay [35]. Kind of assay: percent inhibition of viability; higher = more inhibition. As to conditions: 72 h, IL-2 2.5 ng/mL. As for the experimental part: as §2

Turning to `CS(=O)(=O)CCNCc1ccc(-c2ccc3ncnc(Nc4ccc(OCc5cccc(F)c5)c(Cl)c4)c3c2)o1` [Lapatinib], in [1], the relative IC50 (usually the concentration at the midpoint between the plateaus of the fitted inhibition curve) was above 1 µM.

As for `O=C(c1ccc(F)c(F)c1Nc1ccc(I)cc1F)N1CC(O)([C@@H]2CCCCN2)C1` [Cobimetinib], the “relative IC50” value in [2] is 0.123 µM; in [1], above 1 µM; in assay [3], 0.0516 µM.

For `C#Cc1cccc(Nc2ncnc3cc4c(cc23)OCCOCCOCCO4)c1` [Icotinib], the “relative IC50” value in assay [4] was 1.97 µM.

For the molecule `Cn1c(=O)c(F)c(Nc2ccc(I)cc2F)c2c(=O)n(C[C@@H](O)CO)cnc21` [TAK-733], the “relative IC50” value in assay [2] amounted to 0.0225 µM; in assay [3] it was 0.0126 µM.

On to `CCCOc1ccn2c(C(C)=O)cc(-c3ccccc3S(C)(=O)=O)c2c1` [GSK2801], for which the “relative IC50” value in assay [5] was above 10 µM.

For `CCN1CCN(Cc2ccc(-c3cc4c(N[C@H](C)c5ccccc5)ncnc4[nH]3)cc2)CC1` [NVP-AEE788], in assay [4], the “relative IC50” value worked out at 0.374 µM.

In the case of `O=S(=O)(c1cccc2c(O)nccc12)N1CCCNCC1` [Hydroxyfasudil], the “relative IC50” value in assay [1] was determined as 9.46 µM.

Turning to `COc1cc(F)c(F)c(Nc2ccc(I)cc2F)c1NS(=O)(=O)C1(C[C@H](O)CO)CC1` [Refametinib], the “relative IC50” value in [2] was 0.147 µM; in [6], 0.194 µM; in assay [3], 0.0919 µM.

Regarding `CCN1CCN(c2ccc(Nc3cc(N(C)C(=O)Nc4c(Cl)c(OC)cc(OC)c4Cl)ncn3)cc2)CC1` [NVP-BGJ398], in assay [1], the “relative IC50” value was above 1 µM.

As for `S=P(N1CC1)(N1CC1)N1CC1` [Thio-TEPA], the “relative IC50” value worked out at 4.01 µM in [7] and 4.1 µM in [3].

In the case of `Cn1cnc2c(F)c(Nc3ccc(Br)cc3Cl)c(C(=O)NOCCO)cc21` [Selumetinib], the “relative IC50” value in assay [2] is 0.606 µM; in assay [6] it was 0.136 µM; in assay [1], above 10 µM; in [3], 0.436 µM.

In the case of `Cc1cc(C(=O)NOCCO)c(Nc2ccc(I)cc2F)n(C)c1=O` [AZD-8330], the “relative IC50” value in [2] is 0.013 µM; in [4] it was above 10 µM; in assay [1], above 10 µM; in [3], 0.0102 µM.

Regarding `Oc1ncc(N(CCCl)CCCl)c(O)n1` [Uracil mustard], the “relative IC50” value in [1] was above 10 µM.

Turning to `C[C@@H]1C=C2C(=O)O[C@@H]3CC[C@H](C1)[C@]23O` [Galiellalactone] (max concentration tested 25000 nM), the “percent inhibition of viability” value is -7.95% in [8] (2.5 nM); -9.83% in [8] (25 nM); -6.41% in [8] (250 nM); 10.7% in assay [8] (2500 nM); 80.1% in assay [8] (25000 nM); -18% in assay [9] (2.5 nM). The “percent inhibition of viability” value in [9] (25 nM) was -14.4%; in [9] (250 nM), -12.5%; in [9] (2500 nM), 13.8%; in assay [9] (25000 nM), 106%; in assay [10] (2.5 nM) it was -9.13%; in assay [10] (25 nM) it was 7.06%. Besides, the “percent inhibition of viability” value in [10] (250 nM) was 4.86%; in [10] (2500 nM) it was 10.7%; in assay [10] (25000 nM), 93.2%; in assay [11] (2.5 nM) it was -3.32%; in assay [11] (25 nM), -2.23%; in assay [11] (250 nM), 6.78%. Also, the “percent inhibition of viability” value is 39.3% in [11] (2500 nM); 101% in assay [11] (25000 nM); -11.4% in [12] (2.5 nM); 1.14% in assay [12] (25 nM); -3.83% in [12] (250 nM); 2.67% in [12] (2500 nM). Besides, the “percent inhibition of viability” value in [12] (25000 nM) is 87.7%; in [13] (2.5 nM), 0.84%; in [13] (25 nM), -3.46%; in assay [13] (250 nM) it was 3.95%; in [13] (2500 nM), 18.4%; in assay [13] (25000 nM), 64.7%. The “percent inhibition of viability” value was -8.48% in assay [14] (2.5 nM); 6.95% in assay [14] (25 nM); 7.01% in assay [14] (250 nM); 15.2% in [14] (2500 nM); 93.7% in assay [14] (25000 nM); -7.44% in assay [15] (2.5 nM). The “percent inhibition of viability” value was -15.7% in [15] (25 nM); -6.7% in assay [15] (250 nM); -3.78% in [15] (2500 nM); 81% in assay [15] (25000 nM); -12.7% in assay [16] (2.5 nM); 5.72% in assay [16] (25 nM). Further, the “percent inhibition of viability” value was 9.42% in [16] (250 nM); 27.4% in assay [16] (2500 nM); 89.3% in assay [16] (25000 nM); -13.8% in assay [17] (2.5 nM); -22% in assay [17] (25 nM); -28.1% in [17] (250 nM). Moreover, the “percent inhibition of viability” value in [17] (2500 nM) was 20.7%; in [17] (25000 nM) it was 86%; in assay [18] (2.5 nM), -4.12%; in [18] (25 nM), -5.59%; in [18] (250 nM), -4.92%; in [18] (2500 nM), -11.8%. In addition, the “percent inhibition of viability” value in assay [18] (25000 nM) was 42.7%; in assay [19] (2.5 nM), 0.86%; in assay [19] (25 nM), -9.38%; in assay [19] (250 nM), 4.52%; in assay [19] (2500 nM) it was 34.1%; in [19] (25000 nM) it was 99.1%. In addition, the “percent inhibition of viability” value is -8.21% in assay [20] (2.5 nM); -5.52% in [20] (25 nM); -6.69% in [20] (250 nM); -5.94% in assay [20] (2500 nM); 49.3% in assay [20] (25000 nM); -7.73% in assay [35] (2.5 nM). Besides, the “percent inhibition of viability” value was -4.65% in [35] (25 nM), -5.56% in [35] (250 nM), 8.69% in assay [35] (2500 nM) and 91.9% in assay [35] (25000 nM). Further, the drug sensitivity score in assay [21] is 6.22; in [22] it was 7.95; in assay [23], 6.94; in assay [24], 10.3; in assay [25], 5.23; in [26] it was 6.25. The drug sensitivity score in [27] is 7.72; in assay [28], 4.18; in [29] it was 8.44; in assay [30], 7.97; in assay [31] it was 1.6; in assay [32], 9.99. Also, the drug sensitivity score turned out to be 2.18 in [33] and 6.5 in assay [34].
